# Values of other authors as cited in paper PMC5989765, “The safety, tolerability, and pharmacokinetic profile of GSK2838232, a novel 2nd generation HIV maturation inhibitor, as assessed in healthy subjects” (Pharmacology Research & Perspectives, 2018).
# How the values were obtained:
# [1] = tested on: HIV; details: cited from earlier work
# [2] = tested on: HIV; design: method as in PMID 20154583; details: cited from earlier work
SMILES,anti‐HIV potency compared to BVM ([1]; Phase IIa clinical studies),safety ([1]; Phase IIa clinical studies),efficacy against naturally occurring polymorphisms in the HIV gag region (CA & Sp1) [1],potency in the presence of human serum [2]
C=C(C)[C@@H]1CC[C@]2(NCCN3CCS(=O)(=O)CC3)CC[C@]3(C)[C@H](CC[C@@H]4[C@@]5(C)CC=C(c6ccc(C(=O)O)cc6)C(C)(C)[C@@H]5CC[C@]43C)[C@@H]12 [BMS‐955176],greater and dose‐related anti‐HIV potency,no obvious safety concerns,–,–
"C=C(C)[C@@H]1CC[C@]2(C(=O)O)CC[C@]3(C)[C@H](CC[C@@H]4[C@@]5(C)CC[C@H](OC(=O)CC(C)(C)C(=O)O)C(C)(C)[C@@H]5CC[C@]43C)[C@@H]12 [BVM, Bevirimat]",–,–,lack of efficacy,significant decrease in potency
